According to ChEMBL document CHEMBL3991601, “The target landscape of clinical kinase drugs” (Science, 2017):
The source made the active and inactive calls. Cut-off read from the data, not from the text of the source, for most assays here: actives have a measured Kd and inactives only a lower limit.

Tests used:
[1] = molecular target: Cyclin-dependent kinase 1 (Homo sapiens, UniProt P06493)
[2] = molecular target: T1, Pyridoxal kinase (Homo sapiens, UniProt O00764)
T1 sequence (O00764 whole entry): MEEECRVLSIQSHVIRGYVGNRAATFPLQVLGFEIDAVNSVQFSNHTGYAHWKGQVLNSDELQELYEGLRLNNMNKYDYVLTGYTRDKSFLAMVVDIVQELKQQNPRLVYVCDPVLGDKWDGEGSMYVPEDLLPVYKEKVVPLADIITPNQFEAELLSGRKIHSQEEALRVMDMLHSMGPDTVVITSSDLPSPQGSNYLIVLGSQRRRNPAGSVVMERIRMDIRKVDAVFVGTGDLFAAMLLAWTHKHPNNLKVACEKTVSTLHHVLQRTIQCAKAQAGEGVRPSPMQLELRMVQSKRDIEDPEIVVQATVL

[3] = molecular target: Calcium/calmodulin-dependent protein kinase type II subunit gamma (Homo sapiens, UniProt Q13555)
Sequence of Calcium/calmodulin-dependent protein kinase type II subunit gamma (Q13555 whole entry): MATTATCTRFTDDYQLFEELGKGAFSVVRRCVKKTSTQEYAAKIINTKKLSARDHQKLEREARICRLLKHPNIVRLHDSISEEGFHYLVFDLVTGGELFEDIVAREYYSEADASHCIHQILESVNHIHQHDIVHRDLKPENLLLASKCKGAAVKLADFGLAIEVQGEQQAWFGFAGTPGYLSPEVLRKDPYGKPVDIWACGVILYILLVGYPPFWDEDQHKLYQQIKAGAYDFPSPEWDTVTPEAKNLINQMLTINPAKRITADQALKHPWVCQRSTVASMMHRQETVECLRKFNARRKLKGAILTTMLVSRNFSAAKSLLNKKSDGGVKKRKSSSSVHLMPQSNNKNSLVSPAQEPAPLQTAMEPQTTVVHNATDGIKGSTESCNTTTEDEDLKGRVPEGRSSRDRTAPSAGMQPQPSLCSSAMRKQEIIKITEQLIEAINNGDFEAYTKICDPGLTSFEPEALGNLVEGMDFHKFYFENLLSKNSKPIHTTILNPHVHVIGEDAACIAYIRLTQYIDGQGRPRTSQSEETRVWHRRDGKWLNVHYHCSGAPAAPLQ

[4] = molecular target: Elongation factor Tu, mitochondrial (Homo sapiens, UniProt P49411)
[5] = molecular target: T2, Mitogen-activated protein kinase kinase kinase kinase 2 (Homo sapiens, UniProt Q12851)
T2 sequence (Q12851 whole entry): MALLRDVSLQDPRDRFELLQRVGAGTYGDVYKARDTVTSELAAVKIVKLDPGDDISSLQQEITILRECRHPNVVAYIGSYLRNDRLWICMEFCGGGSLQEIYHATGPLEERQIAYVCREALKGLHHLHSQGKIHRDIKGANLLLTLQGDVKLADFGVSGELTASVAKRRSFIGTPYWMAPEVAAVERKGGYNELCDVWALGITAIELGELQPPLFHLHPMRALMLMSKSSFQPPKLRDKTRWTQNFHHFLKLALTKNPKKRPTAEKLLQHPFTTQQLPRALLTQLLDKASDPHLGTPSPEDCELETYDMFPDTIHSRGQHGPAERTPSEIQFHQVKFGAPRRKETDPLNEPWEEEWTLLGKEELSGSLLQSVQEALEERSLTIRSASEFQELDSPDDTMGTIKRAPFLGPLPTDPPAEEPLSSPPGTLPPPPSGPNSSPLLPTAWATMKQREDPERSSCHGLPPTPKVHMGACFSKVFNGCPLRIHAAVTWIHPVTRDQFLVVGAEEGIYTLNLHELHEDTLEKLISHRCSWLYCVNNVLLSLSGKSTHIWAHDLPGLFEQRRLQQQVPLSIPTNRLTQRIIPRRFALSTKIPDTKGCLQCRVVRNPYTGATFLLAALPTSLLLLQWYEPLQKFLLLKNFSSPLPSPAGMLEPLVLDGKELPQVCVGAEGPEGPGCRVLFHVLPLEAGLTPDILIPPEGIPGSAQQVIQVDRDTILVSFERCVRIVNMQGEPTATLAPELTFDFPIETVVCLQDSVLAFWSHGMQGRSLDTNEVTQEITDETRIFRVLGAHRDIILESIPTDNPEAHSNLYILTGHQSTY

[6] = molecular target: T3, Serine/threonine-protein kinase Nek1 (Homo sapiens, UniProt Q96PY6)
T3 sequence (Q96PY6 whole entry): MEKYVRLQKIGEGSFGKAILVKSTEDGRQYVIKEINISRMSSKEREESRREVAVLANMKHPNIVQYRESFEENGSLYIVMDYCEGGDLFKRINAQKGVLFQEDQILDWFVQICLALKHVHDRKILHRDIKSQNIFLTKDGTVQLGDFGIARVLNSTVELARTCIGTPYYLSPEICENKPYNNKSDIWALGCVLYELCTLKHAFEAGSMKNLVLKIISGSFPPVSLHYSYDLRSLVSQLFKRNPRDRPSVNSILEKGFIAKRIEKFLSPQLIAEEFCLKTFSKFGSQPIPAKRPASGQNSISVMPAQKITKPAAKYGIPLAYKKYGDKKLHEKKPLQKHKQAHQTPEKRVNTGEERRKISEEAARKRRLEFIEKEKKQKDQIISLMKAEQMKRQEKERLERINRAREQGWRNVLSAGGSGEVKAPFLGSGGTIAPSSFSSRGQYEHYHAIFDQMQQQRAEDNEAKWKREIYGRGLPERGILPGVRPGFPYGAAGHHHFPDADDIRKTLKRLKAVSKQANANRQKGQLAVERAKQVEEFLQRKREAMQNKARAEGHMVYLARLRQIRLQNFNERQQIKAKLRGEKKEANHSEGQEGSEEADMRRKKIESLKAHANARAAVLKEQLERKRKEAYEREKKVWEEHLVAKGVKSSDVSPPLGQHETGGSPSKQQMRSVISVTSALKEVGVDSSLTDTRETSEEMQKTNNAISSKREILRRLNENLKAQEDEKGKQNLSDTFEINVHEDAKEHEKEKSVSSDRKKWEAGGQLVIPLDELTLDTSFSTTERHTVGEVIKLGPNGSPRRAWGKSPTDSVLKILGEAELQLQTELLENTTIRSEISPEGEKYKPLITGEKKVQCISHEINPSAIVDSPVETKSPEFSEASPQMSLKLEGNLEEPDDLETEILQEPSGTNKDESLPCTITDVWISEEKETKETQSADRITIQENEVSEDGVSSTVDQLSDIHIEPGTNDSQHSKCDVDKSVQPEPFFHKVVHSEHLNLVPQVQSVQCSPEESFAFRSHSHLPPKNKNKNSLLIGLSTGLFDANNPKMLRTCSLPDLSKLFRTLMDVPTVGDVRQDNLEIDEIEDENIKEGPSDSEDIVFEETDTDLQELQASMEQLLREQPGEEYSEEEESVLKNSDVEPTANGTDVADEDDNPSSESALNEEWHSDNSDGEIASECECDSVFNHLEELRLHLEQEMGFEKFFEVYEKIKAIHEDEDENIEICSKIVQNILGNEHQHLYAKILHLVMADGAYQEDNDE

[7] = molecular target: Ribosomal protein S6 kinase alpha-1 (Homo sapiens, UniProt Q15418)
Sequence of Ribosomal protein S6 kinase alpha-1 (Q15418 whole entry): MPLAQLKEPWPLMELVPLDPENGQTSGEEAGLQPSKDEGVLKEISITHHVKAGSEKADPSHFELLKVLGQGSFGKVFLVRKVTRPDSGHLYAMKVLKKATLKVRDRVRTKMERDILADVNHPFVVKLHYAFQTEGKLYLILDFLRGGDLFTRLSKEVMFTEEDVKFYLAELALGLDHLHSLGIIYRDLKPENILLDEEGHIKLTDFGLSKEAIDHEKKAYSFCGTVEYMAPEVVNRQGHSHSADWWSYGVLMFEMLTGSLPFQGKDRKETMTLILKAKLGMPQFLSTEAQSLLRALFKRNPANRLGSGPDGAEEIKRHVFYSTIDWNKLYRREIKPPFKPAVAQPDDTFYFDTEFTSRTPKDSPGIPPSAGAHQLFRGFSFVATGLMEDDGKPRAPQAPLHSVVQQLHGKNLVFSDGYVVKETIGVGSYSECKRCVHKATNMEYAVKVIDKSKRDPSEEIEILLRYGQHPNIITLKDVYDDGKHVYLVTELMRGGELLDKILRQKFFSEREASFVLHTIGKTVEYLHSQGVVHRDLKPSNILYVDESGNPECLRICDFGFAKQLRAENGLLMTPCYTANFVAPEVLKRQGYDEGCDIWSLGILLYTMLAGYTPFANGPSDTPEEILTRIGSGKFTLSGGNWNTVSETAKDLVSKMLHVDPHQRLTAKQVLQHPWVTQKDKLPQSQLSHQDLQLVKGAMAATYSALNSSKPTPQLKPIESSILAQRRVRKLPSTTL

[8] = molecular target: Serine/threonine-protein kinase PAK 4 (Homo sapiens, UniProt O96013)
Sequence of Serine/threonine-protein kinase PAK 4 (O96013 whole entry, the tested form may be a part): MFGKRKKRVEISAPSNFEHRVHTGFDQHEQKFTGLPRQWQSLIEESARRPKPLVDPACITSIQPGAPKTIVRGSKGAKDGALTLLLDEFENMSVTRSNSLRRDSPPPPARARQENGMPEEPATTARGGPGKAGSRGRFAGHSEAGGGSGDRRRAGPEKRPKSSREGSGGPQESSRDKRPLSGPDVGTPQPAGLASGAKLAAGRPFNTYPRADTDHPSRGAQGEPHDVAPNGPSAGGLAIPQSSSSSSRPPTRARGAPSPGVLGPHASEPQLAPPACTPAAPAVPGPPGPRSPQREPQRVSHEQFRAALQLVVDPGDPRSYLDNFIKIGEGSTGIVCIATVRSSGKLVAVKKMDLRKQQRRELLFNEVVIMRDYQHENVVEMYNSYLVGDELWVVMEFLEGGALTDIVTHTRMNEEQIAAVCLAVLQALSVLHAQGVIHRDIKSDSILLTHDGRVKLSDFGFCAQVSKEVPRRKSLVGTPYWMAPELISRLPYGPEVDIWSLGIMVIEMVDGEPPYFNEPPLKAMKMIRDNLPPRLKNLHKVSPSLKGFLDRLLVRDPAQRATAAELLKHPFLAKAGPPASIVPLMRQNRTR

[9] = molecular target: LIM domain kinase 1 (Homo sapiens, UniProt P53667)
Sequence of LIM domain kinase 1 (P53667 whole entry, the tested form may be a part): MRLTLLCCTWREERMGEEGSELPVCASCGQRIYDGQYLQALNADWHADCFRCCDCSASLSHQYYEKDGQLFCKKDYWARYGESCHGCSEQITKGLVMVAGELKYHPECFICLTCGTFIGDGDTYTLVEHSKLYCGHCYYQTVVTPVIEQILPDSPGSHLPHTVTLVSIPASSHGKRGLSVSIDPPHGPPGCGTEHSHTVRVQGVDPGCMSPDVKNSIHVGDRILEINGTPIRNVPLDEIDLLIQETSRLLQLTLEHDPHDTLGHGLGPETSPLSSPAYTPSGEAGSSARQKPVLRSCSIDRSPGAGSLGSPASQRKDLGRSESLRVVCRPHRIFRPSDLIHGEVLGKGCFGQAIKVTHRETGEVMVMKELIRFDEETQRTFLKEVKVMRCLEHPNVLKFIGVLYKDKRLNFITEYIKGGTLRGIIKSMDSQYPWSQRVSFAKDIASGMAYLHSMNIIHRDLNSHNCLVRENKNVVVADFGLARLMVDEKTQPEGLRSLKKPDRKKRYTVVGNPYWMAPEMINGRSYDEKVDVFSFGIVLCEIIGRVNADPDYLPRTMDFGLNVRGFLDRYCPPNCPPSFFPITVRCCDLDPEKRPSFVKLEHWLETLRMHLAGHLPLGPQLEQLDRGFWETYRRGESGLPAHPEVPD
Note: in the data inactive means no Kd found up to 30 µM.

Sequence of Cyclin-dependent kinase 1 (P06493 whole entry): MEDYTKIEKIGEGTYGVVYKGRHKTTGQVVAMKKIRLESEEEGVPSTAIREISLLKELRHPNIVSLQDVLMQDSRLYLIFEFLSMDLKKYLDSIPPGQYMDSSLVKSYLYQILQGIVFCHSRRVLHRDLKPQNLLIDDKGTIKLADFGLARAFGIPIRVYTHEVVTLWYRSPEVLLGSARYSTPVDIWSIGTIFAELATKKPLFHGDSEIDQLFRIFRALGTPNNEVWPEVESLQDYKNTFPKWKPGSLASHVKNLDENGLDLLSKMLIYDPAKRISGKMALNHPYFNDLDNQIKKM

SMILES | Kd [1] | Kd [2] | Kd [3] | Kd [4] | Kd [5] | Kd [6] | Kd [7] | Kd [8] | Kd [9]
Nc1ncnc2c1c(-c1cccc(OCc3ccccc3)c1)cn2[C@H]1C[C@@H](CN2CCC2)C1 [AEW-541] | > 30 µM (inactive) | > 30 µM (inactive) | > 30 µM (inactive) | > 30 µM (inactive) | 4.58 µM (active) | > 30 µM (inactive) | > 30 µM (inactive) | > 30 µM (inactive) | > 30 µM (inactive)
Cc1csc(-c2nnc(Nc3ccc(Oc4ncccc4-c4ccnc(N)n4)cc3)c3ccccc23)c1 [AMG-900] | > 30 µM (inactive) | > 30 µM (inactive) | > 30 µM (inactive) | > 30 µM (inactive) | 0.186 µM (active) | 2.38 µM (active) | > 30 µM (inactive) | > 30 µM (inactive) | > 30 µM (inactive)
COc1cc([C@@H]2c3cc4c(cc3[C@H](O)[C@H]3COC(=O)[C@@H]23)OCO4)cc(OC)c1OC [AXL-1717] | > 30 µM (inactive) | > 30 µM (inactive) | > 30 µM (inactive) | > 30 µM (inactive) | > 30 µM (inactive) | > 30 µM (inactive) | > 30 µM (inactive) | > 30 µM (inactive) | > 30 µM (inactive)
NC(=O)Nc1cc(-c2cccc(F)c2)sc1C(=O)N[C@H]1CCCNC1 [AZD-7762] | > 30 µM (inactive) | > 30 µM (inactive) | > 30 µM (inactive) | > 30 µM (inactive) | 0.05 µM (active) | > 30 µM (inactive) | > 30 µM (inactive) | 0.166 µM (active) | > 30 µM (inactive)
Cc1cc(Nc2ncc(Cl)c(Nc3ccccc3S(=O)(=O)C(C)C)n2)c(OC(C)C)cc1C1CCNCC1 [CERITINIB] | > 30 µM (inactive) | > 30 µM (inactive) | > 30 µM (inactive) | > 30 µM (inactive) | > 30 µM (inactive) | > 30 µM (inactive) | 21.4 µM (active) | > 30 µM (inactive) | > 30 µM (inactive)
COc1c(OCCCN2CCOCC2)ccc2c1N=C(NC(=O)c1cnc(N)nc1)N1CCN=C21 [COPANLISIB] | > 30 µM (inactive) | > 30 µM (inactive) | > 30 µM (inactive) | > 30 µM (inactive) | > 30 µM (inactive) | > 30 µM (inactive) | > 30 µM (inactive) | > 30 µM (inactive) | > 30 µM (inactive)
COCC(=O)NC/C=C/c1ccc2ncnc(Nc3ccc(Oc4ccc(C)nc4)c(C)c3)c2c1 [CP-724714] | > 30 µM (inactive) | > 30 µM (inactive) | > 30 µM (inactive) | > 30 µM (inactive) | > 30 µM (inactive) | > 30 µM (inactive) | > 30 µM (inactive) | > 30 µM (inactive) | > 30 µM (inactive)
C#Cc1cccc(Nc2ncnc3cc(OC)c(OCCCCCCC(=O)NO)cc23)c1 [CUDC-101] | > 30 µM (inactive) | > 30 µM (inactive) | > 30 µM (inactive) | > 30 µM (inactive) | > 30 µM (inactive) | > 30 µM (inactive) | > 30 µM (inactive) | > 30 µM (inactive) | > 30 µM (inactive)

The next lines start with the values.

Kd [1] | Kd [2] | Kd [3] | Kd [4] | Kd [5] | Kd [6] | Kd [7] | Kd [8] | Kd [9] | SMILES
> 30 µM (inactive) | > 30 µM (inactive) | > 30 µM (inactive) | > 30 µM (inactive) | 0.122 µM (active) | > 30 µM (inactive) | > 30 µM (inactive) | > 30 µM (inactive) | > 30 µM (inactive) | C[C@@H](Oc1cc(C(=O)Nc2ccc(C(=O)N3CCN(C)CC3)cc2)nnc1N)c1c(Cl)ccc(F)c1Cl
> 30 µM (inactive) | > 30 µM (inactive) | > 30 µM (inactive) | > 30 µM (inactive) | > 30 µM (inactive) | > 30 µM (inactive) | > 30 µM (inactive) | > 30 µM (inactive) | > 30 µM (inactive) | C[C@H]1CNCCCN1S(=O)(=O)c1cccc2cncc(F)c12
> 30 µM (inactive) | > 30 µM (inactive) | > 30 µM (inactive) | > 30 µM (inactive) | > 30 µM (inactive) | > 30 µM (inactive) | > 30 µM (inactive) | > 30 µM (inactive) | > 30 µM (inactive) | Cc1nc(NC(=O)N2CCC[C@H]2C(N)=O)sc1-c1ccnc(C(C)(C)C(F)(F)F)c1 [ALPELISIB]
> 30 µM (inactive) | > 30 µM (inactive) | > 30 µM (inactive) | > 30 µM (inactive) | > 30 µM (inactive) | > 30 µM (inactive) | > 30 µM (inactive) | > 30 µM (inactive) | > 30 µM (inactive) | C=CC(=O)Nc1cc2c(Nc3ccc(F)c(Cl)c3)ncnc2cc1C#CC(C)(C)N1CCN(C)CC1 [AV-412 FREE BASE]
> 30 µM (inactive) | > 30 µM (inactive) | > 30 µM (inactive) | > 30 µM (inactive) | > 30 µM (inactive) | > 30 µM (inactive) | > 30 µM (inactive) | > 30 µM (inactive) | > 30 µM (inactive) | Cc1cc(C(=O)NOCCO)c(Nc2ccc(I)cc2F)n(C)c1=O [AZD-8330]
> 30 µM (inactive) | > 30 µM (inactive) | > 30 µM (inactive) | > 30 µM (inactive) | > 30 µM (inactive) | > 30 µM (inactive) | > 30 µM (inactive) | > 30 µM (inactive) | > 30 µM (inactive) | Cn1cnc2c(F)c(Nc3ccc(Br)cc3F)c(C(=O)NOCCO)cc21 [BINIMETINIB]
> 30 µM (inactive) | > 30 µM (inactive) | > 30 µM (inactive) | > 30 µM (inactive) | > 30 µM (inactive) | > 30 µM (inactive) | > 30 µM (inactive) | > 30 µM (inactive) | > 30 µM (inactive) | CCn1c(C(=O)N(C2CC2)C2CC2)cc2c3c(ncn3C)c(Nc3cc(C)n(C)n3)nc21 [BMS-911543]
> 30 µM (inactive) | > 30 µM (inactive) | > 30 µM (inactive) | > 30 µM (inactive) | 2.82 µM (active) | > 30 µM (inactive) | > 30 µM (inactive) | > 30 µM (inactive) | > 30 µM (inactive) | COc1cc2ncnc(Oc3cccc(NC(=O)Nc4cc(C(C)(C)C(F)(F)F)on4)c3)c2cc1OC [CEP-32496]
